Molecular target: Histamine H3 receptor (Rattus norvegicus) (UniProt Q9QYN8)
Assay: Inhibition of the specific binding of [3H](R)-alpha-methylhistamine ([3H]RMHA) to Histamine H3 receptor in rat brain membranes at 10e-8 M

Sequence of Histamine H3 receptor (Rattus norvegicus) (Q9QYN8 whole entry, looked up): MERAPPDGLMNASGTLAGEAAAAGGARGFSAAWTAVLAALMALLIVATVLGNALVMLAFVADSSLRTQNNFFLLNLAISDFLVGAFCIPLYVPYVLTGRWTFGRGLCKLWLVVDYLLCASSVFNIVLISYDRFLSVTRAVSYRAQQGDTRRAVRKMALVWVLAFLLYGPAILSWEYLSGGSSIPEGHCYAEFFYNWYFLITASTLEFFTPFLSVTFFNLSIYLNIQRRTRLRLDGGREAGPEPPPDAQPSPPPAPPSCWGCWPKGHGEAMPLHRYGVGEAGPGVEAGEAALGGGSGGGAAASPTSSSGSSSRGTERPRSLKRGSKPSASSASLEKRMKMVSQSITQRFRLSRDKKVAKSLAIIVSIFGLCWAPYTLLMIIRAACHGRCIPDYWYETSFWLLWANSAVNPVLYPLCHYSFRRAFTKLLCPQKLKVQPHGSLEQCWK

| SMILES | inhibition |
| --- | --- |
| C/C=C\CO | 3.7% |
| O=C(O)C1C[C@@H]1c1c[nH]cn1 (single isomer, unassigned) | 11.6% |
| OC/C=C\c1ccccc1 | 4.3% |
| C/C=C/CO | 10% |
| OC/C=C/c1ccccc1 | 33.5% |

Reference: ChEMBL document CHEMBL1135006, “Synthesis and biological evaluation of novel 2-(1H-imidazol-4-yl)cyclopropane carboxylic acids: key intermediates for H3 histamine receptor ligands” (Bioorg Med Chem Lett, 2002)
